Measured values reported in ChEMBL document CHEMBL5143624, “WCK 1152, WCK 1153: Discovery and structure activity relationship for the treatment of resistant pneumococcal and staphylococcal respiratory infections” (Bioorg Med Chem Lett, 2022).
≈ marks a conversion by molar mass, not a printed value.

What was measured:
Streptococcus pneumoniae [1] = assay: Antibacterial activity against Streptococcus pneumoniae assessed as inhibition of bacterial growth incubated for 18 hrs by CLSI based serial agar dilution method; type: functional; settings: Streptococcus pneumoniae, 18 h, read-out: MIC
Staphylococcus aureus [2] = assay: Antibacterial activity against methicillin resistant Staphylococcus aureus assessed as inhibition of bacterial growth incubated for 18 hrs by CLSI based serial agar dilution method; type: functional; settings: Staphylococcus aureus, read-out: MIC
Streptococcus pneumoniae [3] = assay: Antibacterial activity against fluoroquinolone efflux positive Streptococcus pneumoniae 706 assessed as inhibition of bacterial growth incubated for 18 hrs by CLSI based serial agar dilution method; type: functional
Streptococcus pneumoniae [4] = assay: Antibacterial activity against Streptococcus pneumoniae 5844 harbouring moxifloxacin resistant DNA gyrase and topoisomerase IV mutant assessed as inhibition of bacterial growth incubated for 18 hrs by CLSI based serial agar dilution method; type: functional; settings: Streptococcus pneumoniae, 5844, 18 h
Staphylococcus aureus [5] = assay: Antibacterial activity against methicillin resistant Staphylococcus aureus 032 assessed as inhibition of bacterial growth incubated for 18 hrs by CLSI based serial agar dilution method; type: functional
Streptococcus pneumoniae [6] = assay: Antibacterial activity against beta-lactams, macrolide and fluoroquinolone resistant Streptococcus pneumoniae 718 infected in po dosed Swiss mouse septicemia model assessed as protective dose administered on 1 and 5 hrs post infection and measured on day 7; type: functional, organism-based
Staphylococcus aureus [7] = assay: Antibacterial activity against Staphylococcus aureus […] assessed as inhibition of bacterial growth incubated for 18 hrs by CLSI based serial agar dilution method; type: functional
Staphylococcus aureus [8] = assay: Antibacterial activity against methicillin resistant Staphylococcus aureus 5076 harbouring DNA gyrase and topoisomerase IV mutant and efflux pump assessed as inhibition of bacterial growth incubated for 18 hrs in presence of efflux inhibitor by CLSI based serial agar dilution method; type: functional

Compound	MIC (Streptococcus pneumoniae [1]) [µg/mL]	MIC (Staphylococcus aureus [2]) [µg/mL]	further results
CC1(C)CN(c2c(F)cc3c(=O)c(C(=O)O)cn(C4CC4)c3c2F)CCC1N (configuration not stated)	0.4 (≈ 1.02 µM)	3.12 (≈ 7.97 µM)	–
CCC1CN(c2c(F)cc3c(=O)c(C(=O)O)cn(C4CC4)c3c2OC)CCC1N (configuration not stated)	0.8 (≈ 1.98 µM)	0.1 (≈ 0.248 µM)	–
COc1c(N2CC(C)C(N)C(C)(C)C2)c(F)cc2c(=O)c(C(=O)O)cn(C3CC3)c12 (configuration not stated)	0.2 (≈ 0.479 µM)	0.1 (≈ 0.24 µM)	–
CCNC1CCN(c2c(F)cc3c(=O)c(C(=O)O)cn(C4CC4)c3c2OC)CC1C (configuration not stated)	1.56 (≈ 3.74 µM)	0.4 (≈ 0.958 µM)	–
COc1c(N2CCC(N)C(C)(C)C2)c(F)c(N)c2c(=O)c(C(=O)O)cn(C3CC3)c12 (configuration not stated)	0.2 (≈ 0.478 µM)	3.12 (≈ 7.46 µM)	–
CC1(C)CN(c2ccc3c(=O)c(C(=O)O)cn(-c4ccc(F)cc4F)c3n2)CCC1N (configuration not stated)	1.56 (≈ 3.64 µM)	> 12.5	–
CNC1CCN(c2c(F)cc3c(=O)c(C(=O)O)cn(C4CC4)c3c2OC)CC1(C)C (configuration not stated)	1.56 (≈ 3.74 µM)	0.2 (≈ 0.479 µM)	MIC (Streptococcus pneumoniae [3]): 1.56 µg/mL (≈ 3.74 µM)
Cc1c(F)c(N2CCC(N)C(C)(C)C2)cc2c1c(=O)c(C(=O)O)cn2C1CC1 (configuration not stated)	0.8 (≈ 2.06 µM)	> 12.5	–
CCC1(C)CN(c2c(F)cc3c(=O)c(C(=O)O)cn(C4CC4)c3c2OC)CCC1NC (configuration not stated)	–	–	MIC (Streptococcus pneumoniae [4]): 6.25 µg/mL (≈ 14.5 µM); MIC (Streptococcus pneumoniae [3]): 1.56 µg/mL (≈ 3.62 µM)
COc1c(N2CC[C@@H](N)C(C)(C)C2)c(F)c(N)c2c(=O)c(C(=O)O)cn(C3CC3)c12	6.25 (≈ 14.9 µM)	> 12.5	–
COc1c(N2CCC(NC3CC3)C(C)C2)c(F)cc2c(=O)c(C(=O)O)cn(C3CC3)c12 (configuration not stated)	1.56 (≈ 3.63 µM)	0.4 (≈ 0.931 µM)	–
Cc1c(F)c(N2CCC(N)C(C)(C)C2)nc2c1c(=O)c(C(=O)O)cn2-c1ccc(F)cc1F (configuration not stated)	1.56 (≈ 3.39 µM)	> 12.5	–
CNC1C(C)CN(c2c(F)cc3c(=O)c(C(=O)O)cn(C4CC4)c3c2OC)CC1C (configuration not stated)	0.4 (≈ 0.958 µM)	0.1 (≈ 0.24 µM)	–
Cc1c(N2CCC(N)C(C)C2)c(F)cc2c(=O)c(C(=O)O)cn(C3CC3)c12.Cl (configuration not stated)	–	–	MIC (Staphylococcus aureus [5]): 1.56 µg/mL
CCC1(C)CN(c2c(F)cc3c(=O)c(C(=O)O)cn(C4CC4)c3c2OC)CCC1NC1CC1 (configuration not stated)	–	–	MIC (Streptococcus pneumoniae [4]): > 6.25 µg/mL; MIC (Streptococcus pneumoniae [3]): 0.4 µg/mL (≈ 0.874 µM)
COc1c(N2CC[C@@H](N)C(C)(C)C2)c(F)cc2c(=O)c(C(=O)O)cn(C3CC3)c12	–	0.05 (≈ 0.124 µM)	MIC (Staphylococcus aureus [5]; Staphylococcus aureus, 032, 18 h, read-out: MIC): 0.8 µg/mL (≈ 1.98 µM); EC50 (Streptococcus pneumoniae [6]): 20 mg/kg; MIC (Staphylococcus aureus [7]): 0.05 µg/mL (≈ 0.124 µM); MIC (Staphylococcus aureus [8]): 1.56 µg/mL
COc1c(N2CC(C)C(N(C)C)C(C)C2)c(F)cc2c(=O)c(C(=O)O)cn(C3CC3)c12 (configuration not stated)	0.2 (≈ 0.463 µM)	0.1 (≈ 0.232 µM)	MIC (Streptococcus pneumoniae [3]): 0.2 µg/mL (≈ 0.463 µM)
CCN(CC)C1CCN(c2c(F)cc3c(=O)c(C(=O)O)cn(C4CC4)c3c2OC)CC1	0.8 (≈ 1.85 µM)	0.2 (≈ 0.463 µM)	–
CCn1cc(C(=O)O)c(=O)c2cc(F)c(N3CCC(N)C(C)(C)C3)c(OC)c21 (configuration not stated)	1.56 (≈ 3.99 µM)	6.25 (≈ 16 µM)	–
COc1c(N2CCC(NC(C)=O)C(C)(C)C2)c(F)cc2c(=O)c(C(=O)O)cn(C3CC3)c12 (configuration not stated)	1.56 (≈ 3.5 µM)	0.4 (≈ 0.898 µM)	–
CCC1(CC)CN(c2c(F)cc3c(=O)c(C(=O)O)cn(C4CC4)c3c2OC)CCC1N (configuration not stated)	–	–	MIC (Streptococcus pneumoniae [4]): 6.25 µg/mL (≈ 14.5 µM); MIC (Streptococcus pneumoniae [3]): < 0.4 µg/mL
Cc1c(F)c(N2CCC(N)C(C)(C)C2)c(F)c2c1c(=O)c(C(=O)O)cn2C1CC1 (configuration not stated)	0.1 (≈ 0.247 µM)	3.12 (≈ 7.7 µM)	–
CC1(C)CN(c2nc3c(cc2F)c(=O)c(C(=O)O)cn3C2CC2)CCC1N (configuration not stated)	3.12 (≈ 8.33 µM)	> 12.5	–
COc1c(N2CCC(NC3CC3)C(C)(C)C2)c(F)cc2c(=O)c(C(=O)O)cn(C3CC3)c12 (configuration not stated)	0.8 (≈ 1.8 µM)	0.2 (≈ 0.451 µM)	MIC (Streptococcus pneumoniae [3]): 0.8 µg/mL (≈ 1.8 µM)
COc1c(N2CCC(N)C(C)(C)C2)c(F)c(N)c2c(=O)c(C(=O)O)cn(-c3ccc(F)cc3F)c12 (configuration not stated)	3.12 (≈ 6.36 µM)	12.5 (≈ 25.5 µM)	–
CC1(C)CN(c2c(F)c(N)c3c(=O)c(C(=O)O)cn(C4CC4)c3c2F)CCC1N (configuration not stated)	0.1 (≈ 0.246 µM)	3.12 (≈ 7.68 µM)	–
CCC1(C)CN(c2c(F)cc3c(=O)c(C(=O)O)cn(C4CC4)c3c2OC)CCC1N (configuration not stated)	0.2 (≈ 0.479 µM)	0.1 (≈ 0.24 µM)	MIC (Streptococcus pneumoniae [4]): 2.5 µg/mL (≈ 5.99 µM)
CNC1CCN(c2c(F)cc3c(=O)c(C(=O)O)cn(C4CC4)c3c2OC)CC1C (configuration not stated)	1.56 (≈ 3.87 µM)	0.2 (≈ 0.496 µM)	–
